# Reference: ChEMBL document CHEMBL4346665, “Synthesis and evaluation of tetrahydroquinolin-2(1H)-one derivatives as novel anti-pancreatic cancer agents via targeting autophagy” (Eur J Med Chem, 2019)
# Test system: PANC-1
# Assay: Growth inhibition of human PANC1 cells in nutrient-deprived medium at 10 uM incubated for 24 hrs by MTT assay (reference value: 0.0 +/- 1.9%)
# Assay type: functional
# Settings: PANC-1, 24 h
row,Structure (SMILES),inhibition at 10 µM [%]
1,CC(C)=CCC1Cc2c(OC(=O)Nc3ccc(F)cc3F)cc(=O)n(CCCO)c2CC1(C)C (stereo not drawn),69.7
2,COc1ccc(C(=O)NCCCOc2cc(=O)n(CCCO)c3c2CC(CC=C(C)C)C(C)(C)C3)cc1 (stereo not drawn),55.5
3,COc1ccc(NC(=O)Oc2cc(=O)n(CCCO)c3c2CC(C/C=C(\C)CCC=C(C)C)C(C)(C)C3)cc1 (stereo not drawn),64.1
4,CC(C)=CCC/C(C)=C/CC1Cc2c(OC(=O)Nc3ccc(Cl)c(Cl)c3)cc(=O)n(CCCO)c2CC1(C)C (stereo not drawn),20
5,COc1ccccc1NC(=O)Oc1cc(=O)n(CCCO)c2c1CC(CC=C(C)C)C(C)(C)C2 (stereo not drawn),71.1
6,CC(C)=CCC1Cc2c(OCc3ccccc3)cc(=O)n(CCCO)c2CC1(C)C (stereo not drawn),-0.3
7,CC(C)=CCC/C(C)=C/CC1Cc2c(O)cc(=O)n(CCCO)c2CC1(C)C (stereo not drawn),28.7
8,CC(C)=CCC/C(C)=C/COc1cc(=O)n(CCCO)c2c1CC(C/C=C(\C)CCC=C(C)C)C(C)(C)C2 (stereo not drawn),15.8
9,CC(C)=CCC1Cc2c(OCCCOc3ccc([N+](=O)[O-])cc3)cc(=O)n(CCCO)c2CC1(C)C (stereo not drawn),47.5
10,CC(C)=CCC/C(C)=C/CC1Cc2c(OC(=O)Nc3cccc(F)c3)cc(=O)n(CCCO)c2CC1(C)C (stereo not drawn),52.3
11,CC(C)=CCC1Cc2c(OC(=O)Nc3ccc(F)cc3)cc(=O)n(CCCO)c2CC1(C)C (stereo not drawn),71.2
12,COc1ccc(C(=O)NCCCOc2cc(=O)n(CCCO)c3c2CC(C/C=C(\C)CCC=C(C)C)C(C)(C)C3)cc1 (stereo not drawn),45.7
13,CC(C)=CCC1Cc2c(OCCCNS(=O)(=O)c3ccc(Br)cc3)cc(=O)n(CCCO)c2CC1(C)C (stereo not drawn),19.5
14,CC(C)=CCC1Cc2c(OC(=O)Nc3cccc(F)c3)cc(=O)n(CCCO)c2CC1(C)C (stereo not drawn),66.1
15,CC(C)=CCC/C(C)=C/COc1cc(=O)n(CCCO)c2c1CC(CC=C(C)C)C(C)(C)C2 (stereo not drawn),10.6
16,CC(C)=CCC/C(C)=C/CC1Cc2c(OC(=O)Nc3ccc(F)c(F)c3)cc(=O)n(CCCO)c2CC1(C)C (stereo not drawn),43.7
17,CC(C)=CCC/C(C)=C/CC1Cc2c(OCCCNC(=O)c3ccco3)cc(=O)n(CCCO)c2CC1(C)C (stereo not drawn),69.5
18,CC(C)=CCC/C(C)=C/CC1Cc2c(OCCCNS(=O)(=O)c3ccc(Cl)cc3)cc(=O)n(CCCO)c2CC1(C)C (stereo not drawn),14.5
19,COc1cccc(NC(=O)Oc2cc(=O)n(CCCO)c3c2CC(C/C=C(\C)CCC=C(C)C)C(C)(C)C3)c1 (stereo not drawn),47
20,CC(C)=CCC/C(C)=C/CC1Cc2c(OCCCNC(=O)c3ccc([N+](=O)[O-])cc3)cc(=O)n(CCCO)c2CC1(C)C (stereo not drawn),16.8
21,CC(C)=CCC1Cc2c(OC(=O)Nc3ccc(Cl)c(Cl)c3)cc(=O)n(CCCO)c2CC1(C)C (stereo not drawn),61.4
22,CC(C)=CCC/C(C)=C/CC1Cc2c(OCCCNS(=O)(=O)c3ccc(C(F)(F)F)cc3)cc(=O)n(CCCO)c2CC1(C)C (stereo not drawn),26.4
23,CCOc1cc(=O)n(CCCO)c2c1CC(CC=C(C)C)C(C)(C)C2 (stereo not drawn),66.5
24,COc1ccc(NC(=O)Oc2cc(=O)n(CCCO)c3c2CC(CC=C(C)C)C(C)(C)C3)cc1 (stereo not drawn),3.7
25,CC(C)=CCC1Cc2c(OC(=O)Nc3ccc(F)c(F)c3)cc(=O)n(CCCO)c2CC1(C)C (stereo not drawn),76.7
26,CCOc1cc(=O)n(CCCO)c2c1CC(C/C=C(\C)CCC=C(C)C)C(C)(C)C2 (stereo not drawn),67.8
27,CC(C)=CCC/C(C)=C/CC1Cc2c(OCCCNS(=O)(=O)c3ccc([N+](=O)[O-])cc3)cc(=O)n(CCCO)c2CC1(C)C (stereo not drawn),7.4
28,CC(C)=CCC/C(C)=C/CC1Cc2c(OCc3ccccc3)cc(=O)n(CCCO)c2CC1(C)C (stereo not drawn),46.5

# Test system: PANC-1
# Assay: Growth inhibition of human PANC1 cells in nutrient-rich medium at 10 uM incubated for 24 hrs by MTT assay (reference value: 0.0 +/- 3.8%)
# Assay type: functional
# Settings: PANC-1, 24 h
row,Structure (SMILES),inhibition at 10 µM [%]
1,CC(C)=CCC1Cc2c(OC(=O)Nc3ccc(F)cc3F)cc(=O)n(CCCO)c2CC1(C)C (stereo not drawn),0
2,COc1ccc(C(=O)NCCCOc2cc(=O)n(CCCO)c3c2CC(CC=C(C)C)C(C)(C)C3)cc1 (stereo not drawn),2.5
3,COc1ccc(NC(=O)Oc2cc(=O)n(CCCO)c3c2CC(C/C=C(\C)CCC=C(C)C)C(C)(C)C3)cc1 (stereo not drawn),0
4,CC(C)=CCC/C(C)=C/CC1Cc2c(OC(=O)Nc3ccc(Cl)c(Cl)c3)cc(=O)n(CCCO)c2CC1(C)C (stereo not drawn),0
5,COc1ccccc1NC(=O)Oc1cc(=O)n(CCCO)c2c1CC(CC=C(C)C)C(C)(C)C2 (stereo not drawn),0
6,CC(C)=CCC1Cc2c(OCc3ccccc3)cc(=O)n(CCCO)c2CC1(C)C (stereo not drawn),11.1
7,CC(C)=CCC/C(C)=C/CC1Cc2c(O)cc(=O)n(CCCO)c2CC1(C)C (stereo not drawn),0
8,CC(C)=CCC/C(C)=C/COc1cc(=O)n(CCCO)c2c1CC(C/C=C(\C)CCC=C(C)C)C(C)(C)C2 (stereo not drawn),3.1
9,CC(C)=CCC1Cc2c(OCCCOc3ccc([N+](=O)[O-])cc3)cc(=O)n(CCCO)c2CC1(C)C (stereo not drawn),0
10,CC(C)=CCC/C(C)=C/CC1Cc2c(OC(=O)Nc3cccc(F)c3)cc(=O)n(CCCO)c2CC1(C)C (stereo not drawn),0
11,CC(C)=CCC1Cc2c(OC(=O)Nc3ccc(F)cc3)cc(=O)n(CCCO)c2CC1(C)C (stereo not drawn),0
12,COc1ccc(C(=O)NCCCOc2cc(=O)n(CCCO)c3c2CC(C/C=C(\C)CCC=C(C)C)C(C)(C)C3)cc1 (stereo not drawn),14.1
13,CC(C)=CCC1Cc2c(OCCCNS(=O)(=O)c3ccc(Br)cc3)cc(=O)n(CCCO)c2CC1(C)C (stereo not drawn),3.7
14,CC(C)=CCC1Cc2c(OC(=O)Nc3cccc(F)c3)cc(=O)n(CCCO)c2CC1(C)C (stereo not drawn),0
15,CC(C)=CCC/C(C)=C/COc1cc(=O)n(CCCO)c2c1CC(CC=C(C)C)C(C)(C)C2 (stereo not drawn),18.4
16,CC(C)=CCC/C(C)=C/CC1Cc2c(OC(=O)Nc3ccc(F)c(F)c3)cc(=O)n(CCCO)c2CC1(C)C (stereo not drawn),4.8
17,CC(C)=CCC/C(C)=C/CC1Cc2c(OCCCNC(=O)c3ccco3)cc(=O)n(CCCO)c2CC1(C)C (stereo not drawn),2.8
18,CC(C)=CCC/C(C)=C/CC1Cc2c(OCCCNS(=O)(=O)c3ccc(Cl)cc3)cc(=O)n(CCCO)c2CC1(C)C (stereo not drawn),16.1
19,COc1cccc(NC(=O)Oc2cc(=O)n(CCCO)c3c2CC(C/C=C(\C)CCC=C(C)C)C(C)(C)C3)c1 (stereo not drawn),11.3
20,CC(C)=CCC/C(C)=C/CC1Cc2c(OCCCNC(=O)c3ccc([N+](=O)[O-])cc3)cc(=O)n(CCCO)c2CC1(C)C (stereo not drawn),6.5
21,CC(C)=CCC1Cc2c(OC(=O)Nc3ccc(Cl)c(Cl)c3)cc(=O)n(CCCO)c2CC1(C)C (stereo not drawn),1.8
22,CC(C)=CCC/C(C)=C/CC1Cc2c(OCCCNS(=O)(=O)c3ccc(C(F)(F)F)cc3)cc(=O)n(CCCO)c2CC1(C)C (stereo not drawn),0
23,CCOc1cc(=O)n(CCCO)c2c1CC(CC=C(C)C)C(C)(C)C2 (stereo not drawn),16.6
24,COc1ccc(NC(=O)Oc2cc(=O)n(CCCO)c3c2CC(CC=C(C)C)C(C)(C)C3)cc1 (stereo not drawn),0
25,CC(C)=CCC1Cc2c(OC(=O)Nc3ccc(F)c(F)c3)cc(=O)n(CCCO)c2CC1(C)C (stereo not drawn),0
26,CCOc1cc(=O)n(CCCO)c2c1CC(C/C=C(\C)CCC=C(C)C)C(C)(C)C2 (stereo not drawn),0.8
27,CC(C)=CCC/C(C)=C/CC1Cc2c(OCCCNS(=O)(=O)c3ccc([N+](=O)[O-])cc3)cc(=O)n(CCCO)c2CC1(C)C (stereo not drawn),0
28,CC(C)=CCC/C(C)=C/CC1Cc2c(OCc3ccccc3)cc(=O)n(CCCO)c2CC1(C)C (stereo not drawn),1.5

# Test system: PANC-1
# Assay: Growth inhibition of human PANC1 cells in nutrient-deprived medium incubated for 24 hrs by MTT assay
# Assay type: functional, cell-based
# Settings: PANC-1, 24 h
row,IC50 [µM],Structure (SMILES)
1,7.1,COc1ccc(NC(=O)Oc2cc(=O)n(CCCO)c3c2CC(C/C=C(\C)CCC=C(C)C)C(C)(C)C3)cc1 (stereo not drawn)
2,7.7,COc1ccccc1NC(=O)Oc1cc(=O)n(CCCO)c2c1CC(CC=C(C)C)C(C)(C)C2 (stereo not drawn)
3,7.7,CC(C)=CCC1Cc2c(OC(=O)Nc3ccc(F)cc3)cc(=O)n(CCCO)c2CC1(C)C (stereo not drawn)
4,5.2,CC(C)=CCC/C(C)=C/CC1Cc2c(OCCCNC(=O)c3ccco3)cc(=O)n(CCCO)c2CC1(C)C (stereo not drawn)
5,7.3,CCOc1cc(=O)n(CCCO)c2c1CC(CC=C(C)C)C(C)(C)C2 (stereo not drawn)
6,7.3,CC(C)=CCC1Cc2c(OC(=O)Nc3ccc(F)c(F)c3)cc(=O)n(CCCO)c2CC1(C)C (stereo not drawn)
7,5.8,CCOc1cc(=O)n(CCCO)c2c1CC(C/C=C(\C)CCC=C(C)C)C(C)(C)C2 (stereo not drawn)
